Results on 11 compounds are retold here after ChEMBL document CHEMBL1128697, “Synthesis of isoornithines and methylputrescines. An evaluation of their inhibitory effects on ornithine decarboxylase” (J Med Chem, 1995).

Broadly, the Ki is a dissociation constant, usually derived from enzyme kinetics or from competition with a known ligand.

The assay concerns the target T1, Ornithine decarboxylase (Rattus norvegicus, UniProt P09057).
T1 sequence (P09057 whole entry): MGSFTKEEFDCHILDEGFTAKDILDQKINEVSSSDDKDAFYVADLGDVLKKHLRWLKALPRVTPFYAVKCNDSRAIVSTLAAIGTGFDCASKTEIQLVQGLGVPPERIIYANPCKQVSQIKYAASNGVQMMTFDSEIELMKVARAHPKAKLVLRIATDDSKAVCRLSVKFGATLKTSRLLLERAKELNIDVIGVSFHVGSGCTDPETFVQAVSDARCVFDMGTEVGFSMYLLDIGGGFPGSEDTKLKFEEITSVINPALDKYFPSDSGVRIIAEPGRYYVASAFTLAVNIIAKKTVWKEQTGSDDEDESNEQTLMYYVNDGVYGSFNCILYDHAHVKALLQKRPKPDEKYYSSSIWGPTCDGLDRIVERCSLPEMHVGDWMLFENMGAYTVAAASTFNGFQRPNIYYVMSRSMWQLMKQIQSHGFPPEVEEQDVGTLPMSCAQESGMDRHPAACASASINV
Briefly: Inhibition of liver Ornithine decarboxylase in thioacetamide-treated rat.
With `CC(CN)C(C)(C)CN` (stereo unspecified), the Ki was > 10.5 mM. `CC(C)(CN)CCN`: the Ki was > 10 mM. Turning to `CC(C)(CN)C(C)(C)CN`, the Ki is > 11 mM.

On to `CC(C)(CN)C(C)(CN)C(=O)O` (stereo unspecified), for which the Ki was > 11 mM. Under `CC(CN)C(C)(CN)C(=O)O` (stereo unspecified) stands 1.65 mM. On to `CC(C)(CN)C(CN)C(=O)O` (stereo unspecified), for which the Ki was > 11 mM.

As for `CC(CN)(CCN)C(=O)O` (stereo unspecified), the inhibition constant Ki is > 11 mM. With `NCCC(CN)C(=O)O` (stereo unspecified) the figure was 1.79 mM. On to `CC(CN)C(CN)C(=O)O` (stereo unspecified), for which the inhibitory constant (Ki) came out at 0.72 mM.

`CC(CN)C(C)CN` (stereo unspecified) had an inhibitory constant (Ki) of 6.1 mM.

`NCCCCN` [PUTRESCINE] registered a Ki of 3.5 mM.
